One test concerns the target T1, chorismate lyase (Escherichia coli, UniProt P26602, C15S/C82S).
T1 construct: gene ubiC; monomer, 164 residues
T1 sequence (P26602 2-165 C15S/C82S): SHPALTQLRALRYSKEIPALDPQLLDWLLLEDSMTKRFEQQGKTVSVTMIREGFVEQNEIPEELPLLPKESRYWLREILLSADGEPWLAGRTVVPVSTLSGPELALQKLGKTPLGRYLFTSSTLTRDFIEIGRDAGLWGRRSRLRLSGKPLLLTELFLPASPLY
Kind of test: X-ray crystal structure. The test is classed as binding. Particulars: both cysteines changed to serine; product complex.

The target of test [1] is T2, catabolite gene activator protein (CAP) (Escherichia coli, UniProt P0ACJ8, A145T).
T2 construct: gene crp; homodimer
T2 sequence (P0ACJ8 2-210 A145T): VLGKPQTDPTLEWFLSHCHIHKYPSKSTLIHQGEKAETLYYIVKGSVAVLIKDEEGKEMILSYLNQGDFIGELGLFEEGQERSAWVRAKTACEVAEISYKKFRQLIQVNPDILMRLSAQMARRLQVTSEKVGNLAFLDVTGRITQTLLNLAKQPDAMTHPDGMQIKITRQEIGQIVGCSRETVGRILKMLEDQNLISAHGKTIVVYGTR
Kind of test: X-ray crystal structure, soak. The test is classed as binding. Particulars: crystals grown with cAMP soaked in 10 mM adenosine; bound in one subunit; text also prints the variant as Thr144Ala.

SMILES strings stand for the structures.

This note sets out measurements from article PMC4865297, “Macromolecular Crystallography and Structural Biology Databases at NIST” (Journal of Research of the National Institute of Standards …, 2001).

As for `O=C(O)c1ccc(O)cc1` [4-hydroxy benzoate], the X-ray crystal structure result on chorismate lyase was “the active double Cys-to-Ser variant complexed with product were determined”. For `Nc1ncnc2c1ncn2[C@@H]1O[C@H](CO)[C@@H](O)[C@H]1O` [adenosine], in test [1], the “X-ray crystal structure, soak” value is reported as “Adenosine was preferentially substituted for cAMP in only one of the two CAP subunits”.
